The values below come from patent US20210308286A1 (The Johns Hopkins University, priority 2018, published 2021).

Broadly, the Ki is a dissociation constant, usually derived from enzyme kinetics or from competition with a known ligand. A high value points to weaker binding.

Data set [1] relates to PSMA+ (PC3-ML-1124) and PSMA− (PC3-ML-1117) metastatic nodules. The data set can be described thus: Fluorescence detection of prostate metastasis. Conditions: 20 nmol via tail vein, 24 hours post-injection. The class given is in vivo, mice.
The test system of data set [2] is PSMA+ PC3 PIP and PSMA− PC3 flu subcutaneous tumors. The conditions noted are these: 20 nmol intravenous; for tumor accumulation, whole-animal in vivo fluorescence imaging: 24 hours post-administration; for ex vivo organ distribution / clearance route: 24 hours, ex vivo fluorescence.
Data set [3] concerns the target T1, PSMA (Homo sapiens, UniProt Q04609).
T1 construct: endogenous in cells; host or cells: LNCaP cell lysate
Description: Fluorescence-based PSMA inhibition assay (NAAG hydrolysis by LNCaP cell lysates, Amplex Red). Format: biochemical. Conditions: 4 μM NAAG, Cheng-Prusoff conversion, n=3. How it is done: Briefly, lysates of LNCaP cells (25 μL in 0.1 M Tris-HCl, pH 8.0) were incubated with the serial dilutions of the test compounds (in 12.5 μL of 0.1 M Tris-HCl, pH 8.0) in the presence of 4 μM N-acetylaspartylglutamate (NAAG) (in 12.5 μL of 0.1 M Tris-HCl, pH 8.0) for 120 minutes. The reaction mixtures were incubated with the working solution (50 μL) of the Amplex Red Glutamic Acid Kit (Molecular Probes Inc., Eugene, Oreg.) for 60 minutes. The amount of glutamate released from NAAG hydrolysis by the LNCaP lysates was determined by measuring the fluorescence generated from the reactions using the Cytation 5 plate reader (BioTek, Winooski, Vt.) with excitation at 545 nm and emission at 590 nm. […] Enzyme inhibitory constants (Ki values) were generated using the Cheng-Prusoff conversion. […] Data analysis was performed using GraphPad Prism software (n=3).
Target sequence in this assay (Q04609 whole entry): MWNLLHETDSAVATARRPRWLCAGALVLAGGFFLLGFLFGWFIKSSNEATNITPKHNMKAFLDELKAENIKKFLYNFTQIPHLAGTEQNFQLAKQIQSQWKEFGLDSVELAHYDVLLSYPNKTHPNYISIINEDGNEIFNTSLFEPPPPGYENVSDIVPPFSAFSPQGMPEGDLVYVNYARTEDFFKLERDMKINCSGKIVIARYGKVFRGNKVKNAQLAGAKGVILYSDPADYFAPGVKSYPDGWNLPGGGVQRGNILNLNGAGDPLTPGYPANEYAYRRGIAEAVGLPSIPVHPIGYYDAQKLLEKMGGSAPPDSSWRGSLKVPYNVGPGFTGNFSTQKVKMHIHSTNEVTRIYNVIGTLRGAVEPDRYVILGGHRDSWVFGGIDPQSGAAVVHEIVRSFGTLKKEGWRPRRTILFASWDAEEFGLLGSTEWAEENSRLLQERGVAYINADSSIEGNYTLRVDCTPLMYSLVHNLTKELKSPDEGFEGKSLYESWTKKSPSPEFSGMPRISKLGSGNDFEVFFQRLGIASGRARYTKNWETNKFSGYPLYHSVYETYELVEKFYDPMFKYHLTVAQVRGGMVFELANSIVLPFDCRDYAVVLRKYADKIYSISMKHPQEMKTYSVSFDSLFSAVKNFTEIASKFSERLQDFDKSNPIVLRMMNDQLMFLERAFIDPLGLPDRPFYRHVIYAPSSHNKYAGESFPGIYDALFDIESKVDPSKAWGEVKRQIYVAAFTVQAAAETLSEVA

The target of data set [4] is T1, PSMA. Description: biochemical.
Target sequence in this assay (Q04609 whole entry, looked up): as the sequence (Q04609 whole entry) above
A further data set has as its system PSMA+ PC3 PIP cells. Format: cell-based. Conditions: flow cytometry, time-dependent. In general terms: A flow cytometer gives signals particle by particle.
For data set [5], the system named is PSMA+ PC3 PIP subcutaneous tumor.
For the next data set, the system named is PSMA+ PC3 PIP tumor. The data set can be described thus: In vivo PSMA inhibition with excess […], ex vivo tumor fluorescence. Further details: species or system athymic male nude mice. Conditions: 15 nmol LC-Pyro intravenous, 24 hours post-injection.
The test system of data set [6] is PSMA+ PC3 PIP orthotopic prostate tumor. The data set can be described thus: ^64Cu-LC-Pyro PET/CT and gamma-counting biodistribution, PSMA+ orthotopic model. Conditions: PSMA+ PC3 PIP orthotopic tumor mice, 24 hours post-injection, mean ± SD, n=4.
Description: Organs of interest, including the tumor, prostate, seminal vesicles, testes, heart, spleen, lungs, liver, kidneys, adrenal, stomach, small intestine, large intestine, skin, fat, muscle, bone and brain were excised, washed in saline, dried with absorbent tissue, weighed, and counted on a gamma-counter Wizard® 1480 well-type automatic gamma counter (PerkinElmer Inc.; Shelton, Conn.). Radioactivity measured in each organ was decay-corrected and expressed as the percentage of the injected dose per gram of tissue (% ID/g).
Data set [7] in a line: Plasma blood clearance (pharmacokinetics) after intravenous injection. Conditions: for half-life: BALB/c, 20 nmol per animal, 20 nmol intravenous, plasma fluorescence over 48 hours, n=5. The class given is in vivo, BALB/c mice.
Data set [8] deals with low-risk, localized prostate cancer. The conditions noted are these: vascular targeted PDT, cited from earlier work.
Setting [9] is: LC-Pyro+Laser group, 24 hours post-PDT.

Read-outs that look alike come from different tables or passages of the source. Non-standard residues stand in square brackets, D forms with d. Residues, ends and D or L forms follow the SMILES beside them. ξ: configuration not given here. *: point of attachment. X1 = C=Cc1c(C)c2cc3nc(c4c5[nH]c(cc6nc(cc1[nH]2)C(C)=C6CC)c(C)c5C(=O)C4)[C@@H](CCC(=O)*)[C@H]3C; X2 = O=C(O)CC[C@H](NC(=O)N[C@@H](CCCCNC(=O)CCCCCCC(=O)*)C(=O)O)C(=O)O; ξE = NC(CCC(=O)O)C(=O)O; ξD = NC(CC(=O)O)C(=O)O; ξK = NCCCCC(N)C(=O)O; ξV = CC(C)C(N)C(=O)O; ξS = NC(CO)C(=O)O

Take `C=Cc1c(C)c2cc3nc(c4c5[nH]c(cc6nc(cc1[nH]2)C(C)=C6CC)c(C)c5C(=O)C4)[C@@H](CCC(=O)NCC(=O)NC(CC(=O)O)C(=O)NC(CCC(=O)O)C(=O)NC(C(=O)NC(CC(=O)O)C(=O)NCC(=O)NC(CO)C(=O)NCC(=O)NC(CCCCNC(=O)CCCCCCC(=O)NCCCC[C@H](NC(=O)N[C@@H](CCC(=O)O)C(=O)O)C(=O)O)C(N)=O)C(C)C)[C@H]3C` (some centres unmarked) [LC-Pyro] (X1-G[ξD][ξE][ξV][ξD]G[ξS]G[ξK](X2)-NH2; N-terminus and C-terminus assumed): the “uptake in metastatic nodules, in situ fluorescence imaging” value in data set [1] is “selective uptake”. Besides, in [2], the “tumor accumulation, whole-animal in vivo fluorescence imaging” value is “selective accumulation to the PSMA+ after 24 hours”; the “ex vivo organ distribution / clearance route” value is “liver and kidney clearance”. For the same molecule, the “Ki inhibitory activity against PSMA” value at PSMA [3] is listed as “sub-nanomolar”. On PSMA [4], the inhibition constant Ki was 0.088 nM. In addition, the “selectivity of uptake in PSMA+ PC3 PIP vs PSMA− PC3 flu cells” value with PSMA+ PC3 PIP cells is “nonselective cell-penetrating properties”. In [5] (LC-Pyro only, 50 nmol intravenous), the “therapeutic effect without laser exposure” value was “No therapeutic effect”. For the same molecule, in data set [5] (LC-Pyro with no laser treatment, 50 nmol intravenous), the “skin phototoxicity upon daylight exposure” value is “no sign of skin phototoxicity”. Moreover, the body weight entry in data set [5] (LC-Pyro+Laser group) was “no decrease in body weight”. Moreover, in data set [5] (setting [9]), the “H&E staining of tumor sections” value is reported as “significant damage of tissue architecture” and the “TUNEL staining of tumor sections” value is reported as “significant cell death”. Further, the “tumor regrowth after day 22” value in [5] (LC-Pyro+Laser group, n=4) was “tumor regrowth was observed in two animals”. The “residual or recurrent disease 44 days post-PDT” value in [5] (LC-Pyro+Laser group, the two remaining animals) is reported as “no signs of residual or recurrent disease”. Besides, the tumor growth entry in data set [5] (LC-Pyro+Laser: 30 nmol intravenous, 671-nm laser 100 J/cm^2 at 6 hours, single dose, n=4) is given as “significant tumor growth inhibition”. Besides, the “accumulation in excised PSMA+ PC3 PIP tumors with DCIBzL (PSMA blocker) injected 30 minutes beforehand” value in the data set with PSMA+ PC3 PIP tumor is on record as “less accumulation”. Also, in [6], the “biodistribution, Tumor” value is reported as 9.74 % ID/g. The “plasma circulation time, fold longer than SC-Pyro (single lysine linker analog)” value in data set [7] (BALB/c mice, intravenous) worked out at 8.5 fold. For the same molecule, in data set [7] (mouse, in vivo, iv, read-out: t1/2, fast (plasma, two-compartment model) (converted)), the half-life is 0.5 h. Besides, the half-life in data set [7] (mouse, in vivo, iv, read-out: t1/2, slow (plasma half-life, two-compartment model) (converted)) was 10 h.

On to `C=Cc1c(C)c2cc3nc(c4c5[nH]c(cc6nc(cc1[nH]2)C(C)=C6CC)c(C)c5C(=O)C4)[C@@H](CCC(=O)N[C@H](CCCCNC(=O)CCCCCCC(=O)NCCCC[C@H](NC(=O)N[C@@H](CCC(=O)O)C(=O)O)C(=O)O)C(N)=O)[C@@H]3C` [SC-Pyro], for which, in [2], the “tumor accumulation, whole-animal in vivo fluorescence imaging” value is “negligible accumulation within both the PSMA− and PSMA+ tumors”; the “ex vivo organ distribution / clearance route” value was “metabolized and collected in the gallbladder”. The “Ki inhibitory activity against PSMA” value on PSMA [3] is reported as “sub-nanomolar”. For the same molecule, the “t1/2, slow (plasma half-life, two-compartment model)” value in data set [7] (mouse, in vivo, iv) was 1.17 h.

The molecule `C=Cc1c(C)c2cc3nc(c4c5[nH]c(cc6nc(cc1[nH]2)C(C)=C6CC)c(C)c5C(=O)C4)[C@@H](CCC(=O)N[C@H](CCCCNC(=O)CCCCCCC(=O)NCCCC[C@H](NC(=O)N[C@@H](CCC(=O)O)C(=O)O)C(=O)O)C(N)=O)[C@H]3C` [SC-Pyro] gave a Ki on PSMA [4] of 0.2 nM.

Take `CC[C@H]1c2cc3[n-]c(c(CC(=O)OC)c4nc(cc5[n-]c(cc(n2)[C@@H]1C)c(C(C)=O)c5C)[C@@H](C)[C@@H]4CCC(=O)[O-])c(C(=O)NCCS(=O)(=O)[O-])c3C.[H+].[H+].[Pd+2]` [padeliporfin]: in data set [8] (28% with standard-of-care), the “patients with disease-free biopsy” value is 49%. Moreover, the “percentage of patients with progressive disease” value in data set [8] (58% with standard-of-care) is 28%.
